Measured values reported in patent publication US20100021480A1, “BIOACTIVE SUBSTANCE-BLOOD PROTEIN CONJUGATE AND STABILIZATION OF A BIOACTIVE SUBSTANCE USING THE SAME” (priority 2005, published 2010).
Like-named read-outs stand apart in the source and are kept apart here.

Columns and labels:
ICR female mice = assay: Blood glucose reducing activity through intraperitoneal glucose tolerance test (IPGTT); assay type: in vivo; settings: 10 nmol
Method: Long-acting of the blood glucose reducing effect was tested in this example to determine long-acting of the blood glucose reducing activity of Compound 35 of the present invention. As control samples for determining blood glucose reducing activity and long-acting of the activity, native Exendin-4 was used, and the activity of each peptide sample was measured by intraperitoneal glucose tolerance test (IPGTT).
ICR female mice (6 weeks old, DaehanBioLink, Korea) were employed as test animals, after being adapted in lab for 7 days. Before the test, 8 mice were picked out of each group and blood was collected from tail to measure the glucose concentration in blood using glucometer (Accucheck Sensor, Roche), and then, starved for 15 to 18 hours. […] At each determined time, blood was corrected from caudal vein and the level of glucose therein was measured with glucometer. The experiments for the determination of blood glucose reducing activity and the long-acting of the activity are summarized in Table 5.
The animal test results with respect to the long-acting of blood glucose reducing effect, when Compound 35 of the present invention, and […], were measured through IPGTT, and shown in FIGS. 1 and 2. […]

activated HSA = activated HSA (Homo sapiens, UniProt P02768)
Method: Such binding degree to albumin can be simply qualitatively or quantitatively measured by an in vitro analysis using a simple HPLC.
Human serum albumin (HSA, 1 mM) solution was prepared by dissolving 66.5 mg of the activated HSA prepared in Example 3 in PBS buffer solution (pH 7.2, 1 ml). Stock solutions (1 mM) of bioactive substance Compound 15 (1.8 mg/ml) and Leuprolide (1.2 mg/ml) were respectively prepared by the same method.
The stock solutions prepared in the above method were diluted with PBS buffer so that they had the compositions shown in Table 2 below thereby to prepare sample solutions (100 μl) for determination. Then, each reaction mixture was mixed and slowly shaken in an incubator for 30 min while the temperature condition of 37° C. was kept. After incubation, methanol (150 μl) was added to each sample vial, which was then voltexed for 10 min, to precipitate HSA. The precipitated albumin was spun down by centrifugation (12,000 rpm, 10° C., 10 min.) and the supernatants (50 μl) were taken and analyzed using HPLC under the same conditions.
The degree of conjugation was examined with increasing the concentration of the bioactive substance compounds at the fixed concentration of albumin.

Sequence of activated HSA (P02768 25-609): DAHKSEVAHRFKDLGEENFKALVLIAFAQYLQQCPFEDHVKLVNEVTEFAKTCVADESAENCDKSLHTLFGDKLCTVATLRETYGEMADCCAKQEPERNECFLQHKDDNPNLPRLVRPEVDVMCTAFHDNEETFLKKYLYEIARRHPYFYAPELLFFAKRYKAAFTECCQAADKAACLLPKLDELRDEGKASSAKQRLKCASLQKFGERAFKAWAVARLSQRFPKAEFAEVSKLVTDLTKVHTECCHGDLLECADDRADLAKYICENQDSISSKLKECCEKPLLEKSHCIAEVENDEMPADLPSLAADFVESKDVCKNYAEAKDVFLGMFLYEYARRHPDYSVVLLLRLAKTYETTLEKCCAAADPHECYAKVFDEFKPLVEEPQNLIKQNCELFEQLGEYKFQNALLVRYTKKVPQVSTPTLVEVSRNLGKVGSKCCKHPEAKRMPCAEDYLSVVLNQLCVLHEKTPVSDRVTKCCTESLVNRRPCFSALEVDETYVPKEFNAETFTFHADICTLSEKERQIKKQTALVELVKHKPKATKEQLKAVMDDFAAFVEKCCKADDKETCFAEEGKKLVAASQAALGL

PA 20.6 min (peak area) (activated HSA; Compound 15/albumin 5/50 (μl of 1 mM stocks), PBS, 37° C., 30 min, supernatant HPLC) | PA 20.6 min/4.4M (activated HSA; Compound 15/albumin 5/50, relative to Compound 15 only) | PA 20.6 min/4.4M (activated HSA; Compound 15/albumin 10/0, Compound 15 only) | PA 20.6 min (peak area) (activated HSA; Compound 15/albumin 10/0, Compound 15 only, M: million) | PA 20.6 min (peak area) (activated HSA; Compound 15/albumin 10/50 (μl of 1 mM stocks), PBS, 37° C., 30 min, supernatant HPLC) | PA 20.6 min/4.4M (activated HSA; Compound 15/albumin 10/50, relative to Compound 15 only) | PA 20.6 min (peak area) (activated HSA; Compound 15/albumin 20/50 (μl of 1 mM stocks), PBS, 37° C., 30 min, supernatant HPLC, M: million) | PA 20.6 min/4.4M (activated HSA; Compound 15/albumin 20/50, relative to Compound 15 only) | PA 20.6 min (peak area) (activated HSA; Compound 15/albumin 40/50 (μl of 1 mM stocks), PBS, 37° C., 30 min, supernatant HPLC, M: million) | PA 20.6 min/4.4M (activated HSA; Compound 15/albumin 40/50, relative to Compound 15 only) | PA 20.6 min (peak area) (activated HSA; Compound 15/albumin 50/40 (μl of 1 mM stocks), PBS, 37° C., 30 min, supernatant HPLC, M: million) | PA 20.6 min/4.4M (activated HSA; Compound 15/albumin 50/40, relative to Compound 15 only) | PA 20.6 min (peak area) (activated HSA; Compound 15/albumin 50/50 (μl of 1 mM stocks), PBS, 37° C., 30 min, supernatant HPLC, M: million) | PA 20.6 min/4.4M (activated HSA; Compound 15/albumin 50/50, relative to Compound 15 only) | binding of Compound 15 to albumin (activated HSA; binding test of albumin and Compound 15) | Substance | blood glucose reducing curve in IPGTT versus saline control (ICR female mice; subcutaneous once 10 hours before intraperitoneal glucose (2 g/kg)) | blood glucose reducing curve in IPGTT versus saline control (ICR female mice; subcutaneous once 24 hours before intraperitoneal glucose (2 g/kg))
 |  |  |  |  |  |  |  |  |  |  |  |  |  |  | Exendin-4 | no significant difference | no significant difference
0 | 0 | 1.0 | 4.4M | 0 | 0 | 1.3M | 0.3 | 9.8M | 2.2 | 17.9M | 4.0 | 14.7M | 3.3 | bound | Leuprolide-GSG-Lys-[ε-AEEA-CO—(CH2)2—SH]—NH2.2TFA [Compound 15] |  | 
